From patent US6465457B1 (priority 1991, dated 2002)

What was measured:
Assay type in all cases: in vivo
[1] = system: Venturia inaequalis (Apples); assay: Foliar fungal disease test on plants: Venturia inaequalis (Apples); conditions: 100 ppm a.i. foliar spray or root drench (approx. 40 ppm in dry soil), one or two days before inoculation
Method: (§1) The compounds were tested against a variety of foliar fungal diseases of plants. The technique employed was as follows.
(§2) The plants were grown in John Innes Potting Compost (No 1 or 2) in 4 cm diameter minipots. The test compounds were formulated either by bead milling with aqueous DISPERSOL T or as a solution in acetone or acetone/ethanol which was diluted to the required concentration immediately before use. […] The sprays were applied to maximum retention and the root drenches to a final concentration equivalent to approximately 40 ppm a.i. in dry soil. TWEEN 20 was added to give a final concentration of 0.05% when the sprays were applied to cereals.
(§3) For most of the tests the compounds were applied to the soil (roots) or to the foliage (by spraying) one or two days before the plant was inoculated with the disease. An exception was the test on Erysiphe graminis in which the plants were inoculated 24 hours before treatment. Foliar pathogens were applied by spray as zoosporangial suspensions onto the leaves of test plants. After inoculation, the plants were put into an appropriate environment to allow infection to proceed and then incubated until the disease was ready for assessment. The period between inoculation and assessment varied from four to fourteen days according to the disease and environment.
(§4) The disease level present (i.e. leaf area covered by actively sporulating disease) on each of the treated plants was recorded using the following assessment scale:
(§5) Each assessment was then expressed as a percentage of the level of disease present on the untreated control plants. This calculated value is referred to as a POCO (Percentage of Control) value. An example of a typical calculation is as follows:
(§6) Disease level on untreated control=90
(§7) Disese level on treated plant=30 [formula]
(§8) This calculated POCO value is then rounded to the nearest of the values in the 9-point assessment scale shown above. In this particular example, the POCO value would be rounded to 30. If the calculated POCO falls exactly mid-way between two of the points, it is rounded to the lower of the two values.

[2] = system: Erysiphe graminis tritici (Wheat); assay: Foliar fungal disease test on plants: Erysiphe graminis tritici (Wheat); conditions: 100 ppm a.i. foliar spray or root drench (approx. 40 ppm in dry soil); plants inoculated 24 hours before treatment
Method: as §1, §2, §3, §4, §5, §6, §7, §8

[3] = system: Thanatephorus cucumeries (Rice); assay: Foliar fungal disease test on plants: Thanatephorus cucumeries (Rice); conditions: 100 ppm a.i. foliar spray or root drench (approx. 40 ppm in dry soil), one or two days before inoculation
Method: as §1, §2, §3, §4, §5, §6, §7, §8

[4] = system: Septoria nodorum (Wheat); assay: Foliar fungal disease test on plants: Septoria nodorum (Wheat); conditions: 100 ppm a.i. foliar spray or root drench (approx. 40 ppm in dry soil), one or two days before inoculation
Method: as §1, §2, §3, §4, §5, §6, §7, §8

[5] = system: Pyricularia oryzae (Rice); conditions: 100 ppm a.i. foliar spray or root drench (approx. 40 ppm in dry soil), one or two days before inoculation
[6] = system: Plasmopara viticola (Vines); assay: Foliar fungal disease test on plants: Plasmopara viticola (Vines); conditions: 100 ppm a.i. foliar spray or root drench (approx. 40 ppm in dry soil), one or two days before inoculation
Method: as §1, §2, §3, §4, §5, §6, §7, §8

[7] = system: Phytophthora infestans (Tomatoes); conditions: 100 ppm a.i. foliar spray or root drench (approx. 40 ppm in dry soil), one or two days before inoculation

Structure (SMILES) | POCO (Percentage of Control) disease level, Venturia inaequalis (Apples) [1] | POCO (Percentage of Control) disease level, Erysiphe graminis tritici (Wheat) [2] | POCO (Percentage of Control) disease level, Thanatephorus cucumeries (Rice) [3] | POCO (Percentage of Control) disease level, Septoria nodorum (Wheat) [4] | POCO (Percentage of Control) disease level, Pyricularia oryzae (Rice) [5] | POCO (Percentage of Control) disease level, Plasmopara viticola (Vines) [6] | POCO (Percentage of Control) disease level, Phytophthora infestans (Tomatoes) [7]
COC=C(C(=O)OC)c1ccccc1COC(=O)N(C)c1ccccc1F [3 (2)] | 0 (0 = 0% disease present) | 0 (0 = 0% disease present) | 0 (0 = 0% disease present) | 0 (0 = 0% disease present) | 0 (0 = 0% disease present) | 0 (0 = 0% disease present) | 0 (0 = 0% disease present)
CCN(C(=O)OCc1ccccc1C(=COC)C(=O)OC)c1ccccc1F [3 (3)] | 0 (0 = 0% disease present) | 0 (0 = 0% disease present) | 0 (0 = 0% disease present) | 0 (0 = 0% disease present) | 0 (0 = 0% disease present) | 0 (0 = 0% disease present) | 0 (0 = 0% disease present)
CCN(C(=O)OCc1ccccc1C(=COC)C(=O)OC)c1ccccc1 [5 (3)] | 0 (0 = 0% disease present) | 0 (0 = 0% disease present) | 5 (5 = 3.1-5% disease present) | 0 (0 = 0% disease present) | 0 (0 = 0% disease present) | 0 (0 = 0% disease present) | 5 (5 = 3.1-5% disease present)
COC=C(C(=O)OC)c1ccccc1OC(=O)Nc1ccccc1 [5 (17)] | 1 (1 = 0.1-1% disease present) | 60 (60 = 30.1-60% disease present) | 90 (90 and 94 = 60.1-100% disease present) | 60 (60 = 30.1-60% disease present) | 5 (5 = 3.1-5% disease present) | 0 (0 = 0% disease present) | 60 (60 = 30.1-60% disease present)
COC=C(C(=O)OC)c1ccccc1COC(=O)N(C)c1cccc([N+](=O)[O-])c1 [6 (2)] | 0 (0 = 0% disease present) | 0 (0 = 0% disease present) | 30 (30 = 20.1-30% disease present) | 0 (0 = 0% disease present) | 0 (0 = 0% disease present) | 0 (0 = 0% disease present) | 10 (10 = 5.1-10% disease present)
CCN(C(=O)OCc1ccccc1C(=COC)C(=O)OC)c1cccc([N+](=O)[O-])c1 [6 (3)] | 0 (0 = 0% disease present) | 0 (0 = 0% disease present) | 90 (90 and 94 = 60.1-100% disease present) | 0 (0 = 0% disease present) | 0 (0 = 0% disease present) | 0 (0 = 0% disease present) | 10 (10 = 5.1-10% disease present)
COC=C(C(=O)OC)c1ccccc1COC(=O)Nc1ccc(F)cc1F [24 (1)] | 0 (0 = 0% disease present) | 0 (0 = 0% disease present) | 60 (60 = 30.1-60% disease present) | 60 (60 = 30.1-60% disease present) | 90 (90 and 94 = 60.1-100% disease present) | 0 (0 = 0% disease present) | 20 (20 and 24 = 10.1-20% disease present)
COC=C(C(=O)OC)c1ccccc1COC(=O)N(C)c1ccc(F)cc1F [24 (2)] | 0 (0 = 0% disease present) | 0 (0 = 0% disease present) | 0 (0 = 0% disease present) | 0 (0 = 0% disease present) | 0 (0 = 0% disease present) | 0 (0 = 0% disease present) | 0 (0 = 0% disease present)
COC=C(C(=O)OC)c1ccccc1COC(=O)Nc1ccc(OC)nc1 [32 (1)] | 60 (60 = 30.1-60% disease present) | 20 (20 and 24 = 10.1-20% disease present) | 90 (90 and 94 = 60.1-100% disease present) | 30 (30 = 20.1-30% disease present) | 90 (90 and 94 = 60.1-100% disease present) | 0 (0 = 0% disease present) | 30 (30 = 20.1-30% disease present)
COC=C(C(=O)OC)c1ccccc1COC(=O)Nc1ccccc1C(=O)OC [33 (1)] | 0 (0 = 0% disease present) | 60 (60 = 30.1-60% disease present) | 90 (90 and 94 = 60.1-100% disease present) | 90 (90 and 94 = 60.1-100% disease present) | 90 (90 and 94 = 60.1-100% disease present) | 90 (90 and 94 = 60.1-100% disease present) | 90 (90 and 94 = 60.1-100% disease present)
